The values that follow come from patent US12122760B2, “Compound, composition, and use thereof in preparation of drug” (CHANGSHA ZEDA MEDICAL TECH. CO., LTD, priority 2019, dated 2024).

One assay deals with T1, AR-LBD (GST) (Rattus norvegicus, UniProt P15207).
T1 construct: purchased Life technologies company, USA
T1 sequence (P15207 651-882 limits assumed): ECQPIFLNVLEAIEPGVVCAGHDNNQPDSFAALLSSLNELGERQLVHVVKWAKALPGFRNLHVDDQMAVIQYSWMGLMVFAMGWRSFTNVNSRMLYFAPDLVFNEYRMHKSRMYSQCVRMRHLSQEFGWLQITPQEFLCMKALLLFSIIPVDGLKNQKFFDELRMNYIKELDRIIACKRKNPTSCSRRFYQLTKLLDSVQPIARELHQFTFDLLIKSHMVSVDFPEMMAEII
The assay can be described thus: PolarScreen Androgen Receptor (AR) Competitor Assay, binding experiment of the antagonist and AR. Conditions: fluorescence polarization, incubated 6 hours, FIG. 1; read-out: IC50 of the drug and AR-LBD binding. The source says: PolarScreen™ Androgen Receptor (AR) Competitor Assay, Green kit (Life technologies company, USA) is used to test the affinity of the antagonist to AR-LBD (GST). The mechanism of the experiment is that the AR-LBD is combined with a small molecule fluormone tracer (Fluormone Tracer), and an antagonist added can competitively bind with AR-LBD so as to replace the fluormone tracer, and the replaced fluormone tracer […], and the value of the fluorescence polarization is inversely proportional to the number of the replaced tracers.
A specific process is as follows: the drug is dissolved into 500 uM by using DMSO, and then diluted to 244 nM by double dilution concentration gradients in a 96-well plate. A 10 uL of a reaction system AR-LBD+Tracer is configured in a 384-well plate and 10 uL of the drug solution is added. The positive control is 10 uL of AR-LBD+Tracer with 10 uL of DHT added. The 384-well plate is wrapped by tin foil and incubated for 6 hours in the dark. The fluorescence polarization value is read on a multi-function microplate reader. Graphpad Prism software is used to draw a drug concentration as an abscissa, and the fluorescence polarization value is used as an ordinate for drawing a curve. […] Herein, the DHT, MDV3100, and ARN509 are positive controls.

The next assay relates to VCaP cells. The assay can be described thus: Inhibiting effect on VCaP cell proliferation (MTS). Format: cell-based. Conditions: 4 days treatment, FIG. 6. As for the experimental part: Androgen-sensitive prostate cancer cell (VCaP cells) are cultured in a 96-well plate. The VCaP cells are able to proliferate in a medium supplemented with 10 nM of the DHT. After treating the cells with the drugs for 4 days, we measure the effects of the drugs on the proliferation of the prostate cancer cells.
The VCaP cells are cultured by using 5% CSS and 1640 medium without phenol red, and inoculated in the 96-well plate. 1×10^4 cells are added to each well, and incubated overnight to make the cells stick to a wall. Different concentrations of the drugs are added on the second day. After treating the cells with the drugs for 4 days, cell viability is measured by the MTS kit (Promega, USA). To each well, 10% of an MTS reagent is added, and incubation continued for 2 hours. The absorbance value at […] is then measured by the multi-functional microplate reader. The Graphpad Prism software is used to draw a curve by using the drug concentration as an abscissa and using the absorbance value of the drug treatment/the absorbance value of the blank treatment cell as an ordinate.

Assay [1] concerns AR protein in MDA-MB-453 TNBC cells. Description: AR protein Western blot in MDA-MB-453 cells. Format: cell-based. The following applies: 48 h, FIG. 8. As to the method: MDA-MB-453 cells treated with Zeta55 or Tubastatin A at indicated concentrations for 48 h were harvested and lysed in ice-cold RIPA buffer with protease inhibitor Cocktail. After quantification by BCA, protein (30-50 μg) were separated with 10% SDS-PAGE gels and transferred onto polyvinylidene difluoride (PVDF) membranes. The following antibodies were used in this study: AR(CST,1:1000),α-tubulin(CST,1:1000), Ac-α-tubulin(CST,1:1000). Secondary antibodies: HRP-conjugated anti-mouse IgG and anti-rabbit IgG (Proteintech, 1:5000).

The next assay concerns MDA-MB-453 TNBC cells. Description: Cell proliferation of MDA-MB-453 (CCK8 cell viability). Format: cell-based. The following applies: 72 h. As to the method:
8000 MDA-MB-453 cells were plated in each well of a 96-well plate and incubated for 48 hours. Then cells were treated with increasing concentrations of Zeta55, MDV3100 or SAHA for 72 h, At last, cell viability was measured using a CCK8 Assay kit.

For the next assay, the system named is AR-positive VCaP cells. The assay can be described thus: Selective effects of the drug to cells (MTS; VCaP versus 293T and DU145). Format: cell-based. Conditions: 4 days treatment, FIG. 10. As to the method: 293T cells are AR-negative human embryonic kidney cells, DU145 cells are AR-negative prostate cancer cells, and VCaP cells are AR-positive prostate cancer cells. These three types of the cells are cultured in the 96-well plates and treated with the drugs (in the concentration gradient) respectively for 4 days. Then the inhibition of the drugs on cell proliferation are measure by MTS. Detailed process is as follows:
The VCaP cells are cultured with 5% CSS and 1640 medium without phenol red, and inoculated in the 96-well plates, and 1×10^4 cells are added to each well. The 293T cells and the DU145 cells are cultured with 10% FBS and 1640 medium, and inoculated in the 96-well plates, and 2×10^3 cells are added to each well. The cells are incubated overnight to make the cells stick to a wall. Then the different concentrations of the drugs are added on the second day. After treatment with the drugs for 4 days, cell viability is measured by the MTS kit (Promega, USA). To each well, 10% of an MTS reagent is added, and incubation continued for 2 hours. The absorbance value at […] is then measured by the multi-functional microplate reader. The Graphpad Prism software is used to draw a curve by using the drug concentration as an abscissa and using the absorbance value of the drug treatment/the absorbance value of the blank treatment cell as an ordinate.

Turning to `N#Cc1ccc(N2C(=O)C3(CCC3)N(c3ccc(C(=O)NO)c(F)c3)C2=S)cc1C(F)(F)F` [Zeta 55, 4-(7-(4-cyano-3-(trifluoromethyl)phenyl)-8-oxo-6-thio-5,7-diazaspiro[3.4]octane-5-yl)-2-fluoro-N-hydroxybenzamide], the IC50 on AR-LBD (GST) was determined as 29.8 µM. The “inhibitory effect on the VCap cell proliferation, from high to low” value in the assay on VCaP cells was “Zeta55>Zeta32>Zeta33>Zeta34>Zeta57”. Also, the “cell proliferation inhibitory effect compared with positive control drug MDV3100” value in the assay with VCaP cells (VCaP cells) was “better than that of the positive control drug MDV3100”. Besides, the “reduction of AR protein” value in assay [1] was “significant dose-dependent reduction of AR protein”. Further, the “potency relative to MDV3100” value in the assay on MDA-MB-453 TNBC cells (CCK8, FIG. 9) is reported as “about 1.5 times”. Moreover, the IC50 in the assay with MDA-MB-453 TNBC cells (Homo sapiens, CCK8, FIG. 9, read-out: IC50 of dose-dependent killing of the cells) turned out to be 11.1 µM. Further, in the assay on AR-positive VCaP cells, the “proliferation inhibition effect on AR-positive VCaP cells relative to AR-negative cells (293T and DU145)” value is recorded as “more than 20 times”; the “selectivity of proliferation inhibition” value is recorded as “selective proliferation inhibition on the AR-positive VCaP cells”.
